Test results from patent US4245106A, “Process for the preparation of 1-alkyl-3-aryl-4-pyrazolecarboxylates” (Monsanto Company, priority 1979, dated 1981).

Columns and labels:
Format in all cases: in vivo
Barnyard grass [1] = test: pre-emergent herbicidal activity test
Protocol: (§1) Table II summarizes results of tests conducted to determine the pre-emergent as well as the post-emergent herbicidal activity of the compounds. The pre-emergent test was conducted as follows:
(§2) A good grade of top soil was placed in aluminum pans and compacted to a depth of three-eighths to one-half inch from the top of the pan. On the top of the soil was placed a predetermined number of seeds or vegetative propagules of various plant species. The soil required to level fill the pans after seeding or adding vegetative propagules was weighed into a pan. A known amount of the active ingredient applied in a solvent or as a wettable powder and the soil were thoroughly mixed, and used as a cover layer for prepared pans. After treatment the pans were moved into a greenhouse bench where they were watered from below as needed to give adequate moisture for germination and growth.
(§3) A herbicial rating code was used to signify the extent of phytotoxicity of each species. The rating are defined as follows: […]

Bromus tectorum [2] = test: pre-emergent herbicidal activity test
Protocol: as §1, §2, §3

Canada Thistle [3] = test: pre-emergent herbicidal activity test
Protocol: as §1, §2, §3

Cocklebur [4] = test: pre-emergent herbicidal activity test
Protocol: as §1, §2, §3

Johnsongrass [5] = test: pre-emergent herbicidal activity test
Protocol: as §1, §2, §3

Lambsquarter [6] = test: pre-emergent herbicidal activity test
Protocol: as §1, §2, §3

Morningglory [7] = test: pre-emergent herbicidal activity test
Protocol: as §1, §2, §3

Nutsedge [8] = test: pre-emergent herbicidal activity test
Protocol: as §1, §2, §3

Quackgrass [9] = test: pre-emergent herbicidal activity test
Protocol: as §1, §2, §3

Smartweed [10] = test: pre-emergent herbicidal activity test
Protocol: as §1, §2, §3

Velvetleaf [11] = test: pre-emergent herbicidal activity test
Protocol: as §1, §2, §3

Barnyard grass [12] = test: post-emergent herbicidal activity test
Protocol: (§4) The post-emergent tests were conducted as follows. The active ingredients are applied in spray form to two or three-week old specimens of various plant species. The spray, a solution or wettable powder suspension containing the appropriate rate of active ingredient to give the desired test rate and a surfactant, is applied to the plants. The treated plants are placed in a greenhouse and unless otherwise noted approximately four weeks later the effects are observed and recorded.

Bromus tectorum [13] = test: post-emergent herbicidal activity test
Protocol: as §4

Canada Thistle [14] = test: post-emergent herbicidal activity test
Protocol: as §4

Cocklebur [15] = test: post-emergent herbicidal activity test
Protocol: as §4

Johnsongrass [16] = test: post-emergent herbicidal activity test
Protocol: as §4

Lambsquarter [17] = test: post-emergent herbicidal activity test
Protocol: as §4

Morningglory [18] = test: post-emergent herbicidal activity test
Protocol: as §4

Nutsedge [19] = test: post-emergent herbicidal activity test
Protocol: as §4

Quackgrass [20] = test: post-emergent herbicidal activity test
Protocol: as §4

Smartweed [21] = test: post-emergent herbicidal activity test
Protocol: as §4

Velvetleaf [22] = test: post-emergent herbicidal activity test
Protocol: as §4

[23] = 11.2 Kg/Ha, approximately 28 days after seeding and treating
[24] = 11.2 Kg/Ha, approximately four weeks later
[25] = *11.2 Kg/Ha, observed approximately 14 days after treatment
Note: ranges in brackets are in %.

## CCC(C)OC(=O)c1cn(C)nc1-c1cccc(C(F)(F)F)c1 (stereo not drawn) [Example 20]
Barnyard grass [1]; [23]
  Pre-Emergent herbicidal rating, K Barnyard grass: 3 (75-100)
Bromus tectorum [2]; [23]
  Pre-Emergent herbicidal rating, J Bromus tectorum: 0 (0-24)
Canada Thistle [3]; [23]
  Pre-Emergent herbicidal rating, A Canada Thistle: 0 (0-24)
Cocklebur [4]; [23]
  Pre-Emergent herbicidal rating, B Cocklebur: 0 (0-24)
Johnsongrass [5]; [23]
  Pre-Emergent herbicidal rating, I Johnsongrass: 0 (0-24)
Lambsquarter [6]; [23]
  Pre-Emergent herbicidal rating, E Lambsquarter: 3 (75-100)
Morningglory [7]; [23]
  Pre-Emergent herbicidal rating, D Morningglory: 0 (0-24)
Nutsedge [8]; [23]
  Pre-Emergent herbicidal rating, G Nutsedge: 0 (0-24)
Quackgrass [9]; [23]
  Pre-Emergent herbicidal rating, H Quackgrass: 0 (0-24)
Smartweed [10]; [23]
  Pre-Emergent herbicidal rating, F Smartweed: 1 (25-49)
Velvetleaf [11]; [23]
  Pre-Emergent herbicidal rating, C Velvetleaf: 0 (0-24)
Barnyard grass [12]; [24]
  Post-Emergent herbicidal rating, K Barnyard grass: 0 (0-24)
Bromus tectorum [13]; [24]
  Post-Emergent herbicidal rating, J Bromus tectorum: 0 (0-24)
Canada Thistle [14]; [24]
  Post-Emergent herbicidal rating, A Canada Thistle: 1 (25-49)
Cocklebur [15]; [24]
  Post-Emergent herbicidal rating, B Cocklebur: 1 (25-49)
Johnsongrass [16]; [24]
  Post-Emergent herbicidal rating, I Johnsongrass: 1 (25-49)
Lambsquarter [17]; [24]
  Post-Emergent herbicidal rating, E Lambsquarter: 2 (50-74)
Morningglory [18]; [24]
  Post-Emergent herbicidal rating, D Morningglory: 0 (0-24)
Nutsedge [19]; [24]
  Post-Emergent herbicidal rating, G Nutsedge: 0 (0-24)
Quackgrass [20]; [24]
  Post-Emergent herbicidal rating, H Quackgrass: 0 (0-24)
Smartweed [21]; [24]
  Post-Emergent herbicidal rating, F Smartweed: 0 (0-24)
Velvetleaf [22]; [24]
  Post-Emergent herbicidal rating, C Velvetleaf: 1 (25-49)

## CCCCCCOC(=O)c1cn(C)nc1-c1cccc(C(F)(F)F)c1 [Example 21]
Barnyard grass [1]; [25]
  Pre-Emergent herbicidal rating, K Barnyard grass: 1 (25-49)
Bromus tectorum [2]; [25]
  Pre-Emergent herbicidal rating, J Bromus tectorum: 0 (0-24)
Canada Thistle [3]; [25]
  Pre-Emergent herbicidal rating, A Canada Thistle: 0 (0-24)
Cocklebur [4]; [25]
  Pre-Emergent herbicidal rating, B Cocklebur: 0 (0-24)
Johnsongrass [5]; [25]
  Pre-Emergent herbicidal rating, I Johnsongrass: 0 (0-24)
Lambsquarter [6]; [25]
  Pre-Emergent herbicidal rating, E Lambsquarter: 0 (0-24)
Morningglory [7]; [25]
  Pre-Emergent herbicidal rating, D Morningglory: 0 (0-24)
Nutsedge [8]; [25]
  Pre-Emergent herbicidal rating, G Nutsedge: 0 (0-24)
Quackgrass [9]; [25]
  Pre-Emergent herbicidal rating, H Quackgrass: 0 (0-24)
Smartweed [10]; [25]
  Pre-Emergent herbicidal rating, F Smartweed: 0 (0-24)
Velvetleaf [11]; [25]
  Pre-Emergent herbicidal rating, C Velvetleaf: 0 (0-24)
Barnyard grass [12]; [25]
  Post-Emergent herbicidal rating, K Barnyard grass: 1 (25-49)
Bromus tectorum [13]; [25]
  Post-Emergent herbicidal rating, J Bromus tectorum: 0 (0-24)
Canada Thistle [14]; [25]
  Post-Emergent herbicidal rating, A Canada Thistle: 1 (25-49)
Cocklebur [15]; [25]
  Post-Emergent herbicidal rating, B Cocklebur: 1 (25-49)
Johnsongrass [16]; [25]
  Post-Emergent herbicidal rating, I Johnsongrass: 1 (25-49)
Lambsquarter [17]; [25]
  Post-Emergent herbicidal rating, E Lambsquarter: 2 (50-74)
Morningglory [18]; [25]
  Post-Emergent herbicidal rating, D Morningglory: 1 (25-49)
Nutsedge [19]; [25]
  Post-Emergent herbicidal rating, G Nutsedge: 0 (0-24)
Quackgrass [20]; [25]
  Post-Emergent herbicidal rating, H Quackgrass: 0 (0-24)
Smartweed [21]; [25]
  Post-Emergent herbicidal rating, F Smartweed: 1 (25-49)
Velvetleaf [22]; [25]
  Post-Emergent herbicidal rating, C Velvetleaf: 1 (25-49)

## CCCCOC(=O)c1cn(C)nc1-c1cccc(C(F)(F)F)c1 [Example 30]
Barnyard grass [1]; [23]
  Pre-Emergent herbicidal rating, K Barnyard grass: 3 (75-100)
Bromus tectorum [2]; [23]
  Pre-Emergent herbicidal rating, J Bromus tectorum: 2 (50-74)
Canada Thistle [3]; [23]
  Pre-Emergent herbicidal rating, A Canada Thistle: 2 (50-74)
Cocklebur [4]; [23]
  Pre-Emergent herbicidal rating, B Cocklebur: 0 (0-24)
Johnsongrass [5]; [23]
  Pre-Emergent herbicidal rating, I Johnsongrass: 0 (0-24)
Lambsquarter [6]; [23]
  Pre-Emergent herbicidal rating, E Lambsquarter: 3 (75-100)
Morningglory [7]; [23]
  Pre-Emergent herbicidal rating, D Morningglory: 0 (0-24)
Nutsedge [8]; [23]
  Pre-Emergent herbicidal rating, G Nutsedge: 0 (0-24)
Quackgrass [9]; [23]
  Pre-Emergent herbicidal rating, H Quackgrass: 0 (0-24)
Smartweed [10]; [23]
  Pre-Emergent herbicidal rating, F Smartweed: 3 (75-100)
Velvetleaf [11]; [23]
  Pre-Emergent herbicidal rating, C Velvetleaf: 1 (25-49)
Barnyard grass [12]; [24]
  Post-Emergent herbicidal rating, K Barnyard grass: 1 (25-49)
Bromus tectorum [13]; [24]
  Post-Emergent herbicidal rating, J Bromus tectorum: 1 (25-49)
Canada Thistle [14]; [24]
  Post-Emergent herbicidal rating, A Canada Thistle: 0 (0-24)
Cocklebur [15]; [24]
  Post-Emergent herbicidal rating, B Cocklebur: 1 (25-49)
Johnsongrass [16]; [24]
  Post-Emergent herbicidal rating, I Johnsongrass: 1 (25-49)
Lambsquarter [17]; [24]
  Post-Emergent herbicidal rating, E Lambsquarter: 3 (75-99)
Morningglory [18]; [24]
  Post-Emergent herbicidal rating, D Morningglory: 1 (25-49)
Nutsedge [19]; [24]
  Post-Emergent herbicidal rating, G Nutsedge: 0 (0-24)
Quackgrass [20]; [24]
  Post-Emergent herbicidal rating, H Quackgrass: 0 (0-24)
Smartweed [21]; [24]
  Post-Emergent herbicidal rating, F Smartweed: 0 (0-24)
Velvetleaf [22]; [24]
  Post-Emergent herbicidal rating, C Velvetleaf: 1 (25-49)
